# Test results published in US8133881B2, “Carbohydrate conjugates to prevent abuse of controlled substances” (Shire LLC, priority 2003, dated 2012).
# Tests used:
# [1] = Oral bioavailability of Hydrocodone vs. Galactose-Hydrocodone
# [2] = Intranasal bioavailability of Hydrocodone vs. Galactose Hydrocodone
# [3] = Kitchen test stability of conjugate (release of hydrocodone on heating in pH solutions); format: physicochemical; conditions: for Percent Hydrocodone released: 80-90° C.
# Method: To determine the accessibility of active narcotic from the synthetic conjugates, an attempt was made to release the narcotic from its conjugate. In a kitchen test, we determined the stability of the conjugates when subjected to conditions that would be available to any drug addict. Thus, the kitchen test is a model of “street-safeness” for the narcotics conjugates. The conjugates were heated in a water bath (80-90° C.) in a pH range (1-12) over a 1 hour time course. This pH range constitutes about any solution that can be found commercially at any grocery or drug store. The release of the narcotic from the conjugate was monitored by HPLC and quantified with a dose-response calibration curve of the parent narcotic.
# Using only solutions that would be available to an addict, conjugates were dissolved in water. Water insoluble conjugates were either (a) dissolved in a minimum amount (≦5% v/v) of organic solvent [e.g., DMSO, methanol, or ethanol], (b) added as a suspension to the assay, or (c) dissolved completely in chloroform, and aliquoted to a test tube where the chloroform is evaporated, leaving only a known amount of conjugate. Upon preparation of the conjugate, the conjugate is added to the various pH solutions and heated for 0, 5, 15, or 60 minutes. At the indicated time point, each test tube was removed from the water bath and neutralized with a chilled phosphate buffer (100 mM, pH 7, 4° C.).
# The kitchen test proceeds as follows: • 1. pH solutions [1, 4, 7, 9, 12] prepared with HPLC grade H2O and titrated with NaOH or HCl • 2. prepare hot water bath, keeping temperature at 80-90° C. • 3. conjugates prepared at a concentration of 1 mg/ml as indicated above • 4. 250 μl of conjugate added to 750 μl of pH solutions (final assay volume is 1 ml; if conjugate has been evaporated from CHCl3, add 1 ml of pH solution to test tube) • 5. immediately following the addition of conjugate to pH solution, place test tube in hot water bath (80-90° C.) • 6. at indicated time point, remove test tubes from heat and neutralize with 1 ml of chilled phosphate buffer [0 time point is not heated, but immediately neutralized with phosphate buffer after the addition of conjugate to each pH solution] • 7. before aliquoting each sample for HPLC analysis, the volume of each tube is adjusted to 2 ml to account for changes in concentration from evaporation
# Following HPLC analysis, the amount of released narcotic was extrapolated from a calibration curve of the parent drug and plotted as % narcotic released (w/w, based upon theoretical loading of conjugated species) vs. time.
# [4] = Oral bioavailability of Hydrocodone vs. Ribose-Hydrocodone (serum levels)
# [5] = Intravenous bioavailability of Hydrocodone vs. Ribose Hydrocodone
# [6] = Intranasal bioavailability of Hydrocodone vs. Ribose Hydrocodone
structure (smiles),measurement,setting,value
"COc1ccc2c3c1OC1C(OC(=O)OC[C@H]4O[C@H](O)[C@H](O)[C@@H](O)[C@H]4O)=CCC4[C@@H](C2)[N@@H+](C)CC[C@]314.[Cl-] (some centres unmarked) [Galactose-Hydrocodone, Galacto-Hydrocodone]",Bioavailability compared to Hydrocodone-Bitartarate,[1],approached that of Hydrocodone-Bitaratarate
same,Bioavailability compared to Hydrocodone-Bitartarate,[2],marginally decreased
"COc1ccc2c3c1OC1C(OC(=O)OC[C@H]4OC(O)C(O)[C@H]4O)=CCC4[C@@H](C2)[N@@H+](C)CC[C@]314.[Cl-] (some centres unmarked) [Ribose-Hydrocodone, Ribo-Hydrocodone]",Percent Hydrocodone released,"[3]; pH 1, 5 minutes, relative to zero hour level of free Hydrocodone",8%
same,Percent Hydrocodone released,"[3]; pH 1, 15 minutes, relative to zero hour level",18%
same,Percent Hydrocodone released,"[3]; pH 1, 60 minutes, relative to zero hour level",27.8%
same,Percent Hydrocodone released,"[3]; pH 4, 5 minutes, relative to zero hour level",11%
same,Percent Hydrocodone released,"[3]; pH 4, 15 minutes, relative to zero hour level",12.6%
same,Percent Hydrocodone released,"[3]; pH 4, 60 minutes, relative to zero hour level",19.6%
same,Percent Hydrocodone released,"[3]; pH 7, 5 minutes, relative to zero hour level",12%
same,Percent Hydrocodone released,"[3]; pH 7, 15 minutes, relative to zero hour level",16%
same,Percent Hydrocodone released,"[3]; pH 7, 60 minutes, relative to zero hour level",23.4%
same,Percent Hydrocodone released,"[3]; pH 9, 5 minutes, relative to zero hour level",9%
same,Percent Hydrocodone released,"[3]; pH 9, 15 minutes, relative to zero hour level",11%
same,Percent Hydrocodone released,"[3]; pH 9, 60 minutes, relative to zero hour level",21%
same,hydrocodone released from the conjugate,[3]; pH 12,less than half
same,Percent Hydrocodone released,"[3]; pH 12, 5 minutes, relative to zero hour level",44%
same,Percent Hydrocodone released,"[3]; pH 12, 15 minutes, relative to zero hour level",33%
same,Percent Hydrocodone released,"[3]; pH 12, 60 minutes, relative to zero hour level",41.1%
same,amount of hydrocodone released,"[3]; pHs other than pH 12, after one hour at 90° C.",≤ 27.8%
same,Bioavailability compared to Hydrocodone-Bitartarate,[4],approximately equal
same,Bioavailability compared to Hydrocodone-Bitartarate,[5],decreased
same,clearance rate,[5],increased clearance rate
same,Bioavailability compared to Hydrocodone-Bitartarate,[6],decreased
